What was measured:
[1] = molecular target: T1, FKBP51 (Homo sapiens, UniProt Q13451); test: Fluorescence polarization (FP) assay, binding to the FK506-binding domain of FKBP51; settings: FK506-binding domain of FKBP51 (FKBP51FK1), competition with fluorescent ligand 2b
T1 sequence (Q13451 42-130 limits assumed): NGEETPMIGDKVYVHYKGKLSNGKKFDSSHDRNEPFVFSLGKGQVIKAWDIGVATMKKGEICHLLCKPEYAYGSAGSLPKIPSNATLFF
Method: (§1) In the present invention, in vitro fluorescence polarization assays with the compounds of the general formula (I) were performed to determine the binding affinities to FKBP51 and FKBP52 or to the isolated FK506-binding domains of FKBP51 and FKBP52 ([…]). Binding to the isolated FK506-binding domains is reliably indicative of binding to the full length proteins. The affinities for the isolated FK506-binding domains and for full-length FKBP51 or FKBP52 are the same for all compounds tested so far (Kozany et al, ChemBioChem 2009, 10, 1402-1410).
(§2) Example 11: Fluorescence Polarization (FP) Assays
(§3) In-vitro fluorescence polarization assays were performed to determine the binding affinities for FKBP51 and 52 according to a literature procedure (Kozany, C.; Marz, A.; Kress, C.; Hausch, F., Fluorescent probes to characterise FK506-binding proteins. Chembiochem 2009, 10, (8), 1402-10).
(§4) For fluorescence polarization assays the fluorescent ligand 2b was dissolved in HEPES (20 mm, pH 8), Triton-X100 (0.01%), at double the concentration required for the final sample. The target protein was also diluted in this assay buffer at double the highest concentration required for the final sample. This protein stock was used for a 1:1 serial dilution.
(§5) The fluorescent ligand 2b was diluted in assay buffer to a concentration double the final concentration (20 nM 2b). The inventive compound was dissolved in DMSO to reach a 100-times concentrated stock solution. This was used for a 1:1 serial dilution in DMSO. Every sample of this serial dilution was diluted by a factor of 50 in assay buffer supplemented with ligand 2b to achieve a 2× concentrated mixture of ligand 2b and the inventive compound. To this competitive ligand double the protein concentration for 2b assay: FKBP51FK1 560 nM (2×280 nM) or FKBP52FK1 800 nM (2×400 nM) diluted in assay buffer was added.
(§6) The samples were transferred to black 384-well assay plates (No.: 3575; Corning Life Sciences). After incubation at room temperature for 30 min the fluorescence anisotropy was measured (GENios Pro, Tecan, Männedorf, Switzerland) by using an excitation filters of 485/20 nm and emission filters of 535/25 nm. The binding assays were performed in duplicates in the plate format.
(§7) The competition curves were analyzed by using SigmaPlot9. Data were fitted to a four parameter logistic curve to deduce the IC50 values. For the analysis of K1 values, data were fitted to the following equation (Z. X. Wang, FEBS Lett. 1995, 360, 111-114). A=(Amax−Amin)/[L]t×(([L]t×((2×((Klig+Kcomp+[L]t+[I]t−[R]t)^2−3×(Kcomp×([L]t−[R]t)+Klig×([I]t−[R]t)+[…]))^0.5×COS(ARCCOS((−2×(Klig+Kcomp+[L]t+[I]t−[R]t)^3+9×(Klig+Kcomp+[L]t+[I]t−[R]t)×(Kcomp×([L]t−[R]t)+Klig×([I]t−[R]t)+Klig×Kcomp)−27×(−1×Klig×Kcomp×[R]t))/(2×((((Klig+Kcomp+[L]t+[I]t−[R]t)^2−3×(Kcomp×([L]t−[R]t)+Klig×([I]t−[R]t)+Klig×Kcomp))^3)^0.5)))/3))−(Klig+Kcomp+[L]t+[I]t−[R]t)))/((3×Klig)+((2×((Klig+Kcomp+[L]t+[I]t−[R]t)^2−3×(Kcomp×([L]t−[R]t)+Klig×([I]t−[R]t)+Klig×Kcomp))^0.5×COS(ARCCOS((−2×(Klig+Kcomp+[L]t+[I]t−[R]t)^3+9×(Klig+Kcomp+[L]t+[I]t−[R]t)×(Kcomp×([L]t−[R]t)+Klig×([I]t−[R]t)+Klig×Kcomp)−27×(−1×Klig×Kcomp×[R]t))/(2×((((Klig+Kcomp+[L]t+[I]t−[R]t)^2−3×(Kcomp×([L]t−[R]t)+Klig×([I]t−[R]t)+Klig×Kcomp))^3)^0.5)))/3))−(Klig+Kcomp+[L]t+[I]t−[R]t)))+Amin
(§8) In this equation Klig and Kcomp stand for the Kd values of the used tracer or competing inhibitor, [I]t is referring to the total concentration of the titrated inhibitor.

[2] = molecular target: T2, FKBP52 (Homo sapiens, UniProt Q02790); test: Fluorescence polarization (FP) assay, binding to the FK506-binding domain of FKBP52; settings: FK506-binding domain of FKBP52 (FKBP52FK1), competition with fluorescent ligand 2b
T2 sequence (Q02790 50-138 limits assumed): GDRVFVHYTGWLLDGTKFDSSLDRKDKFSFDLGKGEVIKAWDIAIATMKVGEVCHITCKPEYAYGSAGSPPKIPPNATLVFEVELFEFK
Method: as §1, §2, §3, §4, §5, §6, §7, §8

SMILES	Ki [1]	Ki [2]
C=C[C@@H]1CN(Cc2ccccn2)C(=O)[C@@H]2CCC[C@H]1N2S(=O)(=O)c1ccc(-c2ccccc2)nc1 [Compound K27, (1S,5R,6R)-10-((6-phenylpyridin-3-yl)sulfonyl)-3-(pyridin-2-ylmethyl)-5-vinyl-3,10-diazabicyclo[4.3.1]decan-2-one]	100 to 500 nM	100 to 500 nM
C#CCN1C[C@H](COC)[C@H]2CCC[C@@H](C1=O)N2S(=O)(=O)c1cc(Br)cc(C(N)=O)c1 [Compound N5, 3-bromo-5-(((1S,5S,6R)-5-(methoxymethyl)-2-oxo-3-(prop-2-yn-1-yl)-3,10-diazabicyclo[4.3.1]decan-10-yl)sulfonyl)benzamide]	100 to 500 nM	100 to 500 nM
C=C[C@@H]1CN(Cc2ccccn2)C(=O)[C@@H]2CCC[C@H]1N2S(=O)(=O)c1cc(Br)cc(C(N)=O)c1 [Compound K18, 3-bromo-5-(((1S,5R,6R)-2-oxo-3-(pyridin-2-ylmethyl)-5-vinyl-3,10-diazabicyclo[4.3.1]decan-10-yl)sulfonyl)benzamide]	100 to 500 nM	100 to 500 nM
C=C[C@@H]1CN(Cc2ccccn2)C(=O)[C@@H]2CCC[C@H]1N2S(=O)(=O)c1cc(Cl)cc(C(N)=O)c1 [Compound K19, 3-chloro-5-(((1S,5R,6R)-2-oxo-3-(pyridin-2-ylmethyl)-5-vinyl-3,10-diazabicyclo[4.3.1]decan-10-yl)sulfonyl)benzamide]	100 to 500 nM	100 to 500 nM
COC[C@H]1CN(Cc2cnn[nH]2)C(=O)[C@@H]2CCC[C@H]1N2S(=O)(=O)c1ccc(-c2ncccn2)cc1 [Compound N27, (1S,5S,6R)-3-((1H-1,2,3-triazol-5-yl)methyl)-5-(methoxymethyl)-10-((4-(pyrimidin-2-yl)phenyl)sulfonyl)-3,10-diazabicyclo[4.3.1]decan-2-one]	≤ 100 nM	≤ 100 nM
COc1ccc(OCCN2C[C@H]([C@H](O)CO)C3CCCC(C2=O)N3S(=O)(=O)c2cc(Cl)cc(Cl)c2)cc1OC (stereo partly drawn) [C2(C2a/b), (1S,5S,6R)-10-((3,5-dichlorophenyl)sulfonyl)-5-(1,2-dihydroxyethyl)-3-(2-(3,4-dimethoxyphenoxy)ethyl)-3, 10-diazabicyclo[4.3.1]decan-2-one]	≤ 100 nM	≤ 100 nM
COCCN1CC(CO)C2CCCC(C1=O)N2S(=O)(=O)c1cc(Cl)cc(Cl)c1 (stereo in doubt) [Compound B13, (1S,5R,6R)-10-((3,5-dichlorophenyl)sulfonyl)-5-(hydroxymethyl)-3-(2-methoxyethyl)-3,10-diazabicyclo[4.3.1]decan-2-one]	≤ 100 nM	100 to 500 nM
C=CC1CN(Cc2cnccn2)C(=O)C2CCCC1N2S(=O)(=O)c1cc(Cl)cc(Cl)c1 (stereo in doubt) [Compound J14, (1S,5R,6R)-10-((3,5-dichlorophenyl)sulfonyl)-3-(pyrazin-2-ylmethyl)-5-vinyl-3,10-diazabicyclo[4.3.1]decan-2-one]	100 to 500 nM	100 to 500 nM
COCO[C@H]1CNC(=O)[C@@H]2CCC[C@H]1N2S(=O)(=O)c1cc(Cl)cc(Cl)c1 [Compound H2.2, (1S,5S,6R)-10-((3,5-dichlorophenyl)sulfonyl)-5-(methoxymethoxy)-3,10-diazabicyclo[4.3.1]decan-2-one]	500 to 1000 nM	500 to 1000 nM
C#CCN1CC(C=C)C2CCCC(C1=O)N2S(=O)(=O)c1cc(Cl)cc(Cl)c1 (stereo in doubt) [Compound J12, (1S,5R,6R)-10-((3,5-dichlorophenyl)sulfonyl)-3-(prop-2-yn-1-yl)-5-vinyl-3,10-diazabicyclo[4.3.1]decan-2-one]	100 to 500 nM	100 to 500 nM
O=C1C2CCCC(C(CO)CN1CCO)N2S(=O)(=O)c1cc(Cl)cc(Cl)c1 (stereo in doubt) [Compound C1, (1S,5R,6R)-10-((3,5-dichlorophenyl)sulfonyl)-3-(2-hydroxyethyl)-5-(hydroxymethyl)-3,10-diazabicyclo[4.3.1]decan-2-one]	≤ 100 nM	≤ 100 nM
C=CC1CN(Cc2ccccn2)C(=O)C2CCCC1N2S(=O)(=O)c1nc2ccccc2[nH]1 (stereo in doubt) [Compound K29, (1S,5R,6R)-10-((1H-benzo[d]imidazol-2-yl)sulfonyl)-3-(pyridin-2-ylmethyl)-5-vinyl-3,10-diazabicyclo[4.3.1]decan-2-one]	≤ 100 nM	≤ 100 nM
COc1ccc(OCCN2C[C@H](C(C)(C)O)[C@H]3CCC[C@@H](C2=O)N3S(=O)(=O)c2cc(Cl)cc(Cl)c2)cc1OC [Compound D3, (1S,5S,6R)-10-((3,5-dichlorophenyl)sulfonyl)-3-(2-(3,4-dimethoxyphenoxy)ethyl)-5-(2-hydroxypropan-2-yl)-3,10-diazabicyclo[4.3.1]decan-2-one]	≤ 100 nM	≤ 100 nM
C#CCN1C[C@H](COC)[C@H]2CCC[C@@H](C1=O)N2S(=O)(=O)c1cc(Cl)cc(C(=O)OC)c1 [Compound N12, methyl 3-chloro-5-(((1S,5S,6R)-5-(methoxymethyl)-2-oxo-3-(prop-2-yn-1-yl)-3,10-diazabicyclo[4.3.1]decan-10-yl)sulfonyl)benzoate]	100 to 500 nM	100 to 500 nM
C#CCN1C[C@H](COC)[C@H]2CCC[C@@H](C1=O)N2S(=O)(=O)c1ccc(NC(C)=O)c(Cl)c1 [Compound N8, N-(2-chloro-4-(((1S,5S,6R)-5-(methoxymethyl)-2-oxo-3-(prop-2-yn-1-yl)-3,10-diazabicyclo[4.3.1]decan-10-yl)sulfonyl)phenyl)acetamide]	100 to 500 nM	100 to 500 nM
N[C@@H]1CNC(=O)[C@@H]2CCC[C@H]1N2S(=O)(=O)c1cc(Cl)cc(Cl)c1 [Compound H1.2, (1S,5R,6R)-5-amino-10-((3,5-dichlorophenyl)sulfonyl)-3,10-diazabicyclo[4.3.1]decan-2-one]	1000 to 5000 nM	1000 to 5000 nM
C=CC1CN(Cc2c[nH]nn2)C(=O)C2CCCC1N2S(=O)(=O)c1cc(Cl)cc(Cl)c1 (stereo in doubt) [Compound J13, (1S,5R,6R)-3-((1H-1,2,3-triazol-4-yl)methyl)-10-((3,5-dichlorophenyl)sulfonyl)-5-vinyl-3,10-diazabicyclo[4.3.1]decan-2-one]	≤ 100 nM	≤ 100 nM
C=C[C@@H]1CN(Cc2ccccn2)C(=O)[C@@H]2CCC[C@H]1N2S(=O)(=O)c1cc(Cl)c(O)c(Cl)c1 [Compound K8, (1S,5R,6R)-10-((3,5-dichloro-4-hydroxyphenyl)sulfonyl)-3-(pyridin-2-ylmethyl)-5-vinyl-3,10-diazabicyclo[4.3.1]decan-2-one]	100 to 500 nM	100 to 500 nM
COC[C@H]1CN(Cc2cnnn2Cc2ccccc2)C(=O)[C@@H]2CCC[C@H]1N2S(=O)(=O)c1cccc(F)c1 [Compound N30, (1S,5S,6R)-3-((1-benzyl-1H-1,2,3-triazol-5-yl)methyl)-10-((3-fluorophenyl)sulfonyl)-5-(methoxymethyl)-3,10-diazabicyclo[4.3.1]decan-2-one]	100 to 500 nM	100 to 500 nM

— patent publication US9914732B2, “Diazabicyclo[4.3.1]decane derivatives for treatment of psychiatric disorders” (Max-Planck-Gesellschaft zur Forderung der Wissenschaften …, priority 2014, dated 2018)
